{"source": "patent US11072628B2", "about": "“Nucleoside analogues for the treatment of parasitic infections” (UNIVERSITEIT GENT, priority 2017, dated 2021)", "key": {"T. b. brucei Squib 427 [1]": {"test_system": "T. b. brucei Squib 427", "conditions": "comparison statement, not tested here; cited from earlier work"}, "[2]": {"test_system": "T. b. rhodesiense STIB-900", "test": "In vitro drug susceptibility, T. b. rhodesiense STIB-900 (resazurin)", "format": "cell-based, Trypanosoma brucei rhodesiense", "conditions": "Trypanosoma brucei, RHODESIENSE, read-out: T. brucei rhod. EC50", "description": "(§1) All trypanosome strains were cultured in the standard HMI-9 medium supplemented with 10% fetal bovine serum (FBS) at 37° C. in a 5% CO2 atmosphere."}, "T. b. brucei Squib 427 [3]": {"test_system": "T. b. brucei Squib 427", "test": "In vivo antiparasitic activity in mice (T. brucei; acute model)", "set-up": "species or system Trypanosoma brucei brucei", "description": "The test compound of the invention was formulated in 10% (V/V) PEG400 in water at 2 mg/mL and was freshly prepared at every administration. The test compound was administered orally (PO) b.i.d. for 5 days at 25 mg/kg. The reference drug suramin was formulated in PBS at 2.5 mg/mL and administered s.i.d. IP for 5 days at 10 mg/kg. Treatment was initiated ½ hour prior to the IP infection."}, "T. brucei AnTAR1 PPYRE9": {"test_system": "T. brucei AnTAR1 PPYRE9", "test": "In vivo antiparasitic activity in mice (T. brucei; stage-II disease model)", "set-up": "species or system Trypanosoma brucei", "conditions": "treatment from 21 dpi for 5 days; 25 mg/kg PO b.i.d. or 25, 12.5 or 6.25 mg/kg s.i.d.", "description": "The test compound, FH7429_D was formulated in 5% (V/V) Tween80 at 4 mg/mL and administered according to body weight (25 mg/kg bid., oral gavage) for 5 days. Treatment commenced at 21 dpi, in mice which had positive CNS involvement (BLI). Two reference groups: vehicle control as well as melarsoprol (120 mg/kg, s.i.d. topical for 3 days) were included. Topical melarsoprol formulation was prepared as following: 3.6% melarsprol in propylene glycol was used to prepare a 1.5% hydroxypropylcellulose (HPC) gel.\nParasitemia analysis was performed by microscopic evaluation of tail vein blood samples at 21 (before treatment initiation), 25, 28, 32 and 35 dpi. Bioluminescent imaging (BLI) was performed at 7, 14, 21, 28, 35, 43, 50 and 53 dpi. BLI experiments were performed as following: D-luciferin (15 mg/kg) was injected intraperitoneally, and mice were subsequently anaesthetized using isoflurane. The luminescent signal was measured over a 5 second as well as 5-minute exposure time, both for the ventral as well as the dorsal side of the animals."}, "[4]": {"test_system": "T. cruzi Tulahuen CL2 β galactosidase strain", "test": "T. cruzi Tulahuen CL2 β galactosidase strain on MRC-5SV2 cells (CPRG)", "format": "cell-based, Trypanosoma cruzi", "conditions": "Trypanosoma cruzi, TULAHUEN, MRC-5 SV2", "description": "All cultures and assays were conducted at 37° C./5% CO2. […] The results were expressed as % reduction in parasite burdens compared to control wells from which an EC50 was calculated."}, "[5]": {"test": "Cytotoxicity against MRC-5 fibroblasts", "conditions": "human, MRC-5 fibroblasts, cytotoxicity", "description": "Cytotoxicity was assayed against MRC-5 fibroblasts. Results are depicted in Tables 4 and 5."}, "T. brucei Squib 427": {"test_system": "T. brucei Squib 427", "test": "In vitro drug susceptibility, T. brucei Squib 427 (resazurin)", "format": "cell-based, Trypanosoma brucei brucei", "conditions": "for EC50: Trypanosoma brucei", "description": "as §1"}, "[6]": {"test_system": "T. vaginalis trophozoites (metronidazole susceptible G3 strain)", "test": "Trichomonas vaginalis in vitro assay", "format": "cell-based", "conditions": "Trichomonas vaginalis, average of 2-5 independent replicates", "description": "T. vaginalis trophozoites (metronidazole susceptible G3 strain) were grown in vitro in modified Diamond's media (MDM) with 10% heat inactivated horse serum (HIHS) acquired from Gibco Life Technologies. After medium preparation, the pH was adjusted to 6.3-6.4 employing 1.0 M aq. HCl. Parasites cultures were passaged every day by taking 1 mL of cell culture into a 25 mL bottle of fresh media to ensure the cells were kept at the appropriate concentration of ˜2×10^6 cells/mL. The culture flasks were filled completely and tightly capped to provide the cells with an anaerobic environment. The parasites were maintained in incubation at 37° C. When culturing in multiwell plates, the plates were sealed with Nescofilm® and inserted in BD GasPak EZ pouches (BD Diagnostics, UK) in order to create anaerobic conditions. Assays were performed with 5×10^4 trophozoites/well (100 μL) to which compound dilutions were added (100 μL). Outside wells of columns and rows were filled with 200 μL of sterile water. Plates were sealed with Nescofilm® and incubated under anaerobic conditions as described above. After 24 h, 30 μL of assay dye solution (resorufin) was added, and incubated for 1-2 h before being read using Fluostar Optima (BMG Labtech, UK) at an excitation wavelength of 544 nm and an emission wavelength of 620 nm."}, "T. cruzi (Y-strain)": {"test_system": "T. cruzi (Y-strain)", "test": "In vivo antiparasitic activity in mice (T. cruzi Y-strain)", "set-up": "species or system Trypanosoma cruzi", "conditions": "25 mg/kg PO b.i.d. for five days starting at 5 dpi", "description": "The animals were allowed to acclimate for 7 days before starting the experiments. […] Age-matched non-infected mice were maintained under identical conditions. The animals were divided into the following groups (n=6): uninfected (non-infected and non-treated), untreated (infected but treated only with vehicle), and treated (infected and treated with the compounds). […] Formulations were prepared freshly before each administration. Only mice with positive parasitemia were used in the infected groups. Parasitemia was individually checked by direct microscopic counting of the number of parasites in 5 μl of blood (Panel A—FIG. 5), and mice were checked for mortality daily until 30 days post-treatment (corresponding to 40 dpi). Mortality is expressed as the percent cumulative mortality (CM; Panel B—FIG. 5)."}, "[7]": {"conditions": "Table 2, average of 2-3 independent replicates"}, "[8]": {"conditions": "read-out: T. brucei brucei EC50, Table 1, average of 2-4 independent determinations"}}, "note": "“Also recorded” adds a separate entry of the source. Like-named read-outs stand apart in the source and are kept apart here."}
{"smiles": "Nc1ncnc2c1ncn2[C@@H]1O[C@H](CO)C[C@H]1O", "note": "[cordycepin, 3′-deoxy-adenosine]", "values": [{"measurement": "clearance of T. brucei infection as a monotherapy", "setting": "T. b. brucei Squib 427 [1]", "value": "unable to clear the infection"}]}
{"smiles": "Nc1ncnc2c1ccn2[C@@H]1O[C@H](CO)C[C@H]1O", "note": "[FH7429_D, 4-amino-N7-(3′-deoxy-β-D-ribofuranosyl)-pyrrolo[2,3-d]pyrimidine]", "values": [{"measurement": "EC50", "setting": "[2]", "value": 0.5, "unit": "nM"}, {"measurement": "parasitological cure (sub-inoculation in naive mice)", "setting": "T. b. brucei Squib 427 [3]; animals surviving until day 21 post infection", "value": "total parasitological cure; also recorded: able cure an acute infection"}, {"measurement": "clinical symptoms of trypanosomiasis / parasitemia", "setting": "T. b. brucei Squib 427 [3]; infected mice, 5 consecutive days, test compound 25 mg/kg PO b.i.d. (FH7429_D also 10 mg/kg s.i.d. IP), suramin 10 mg/kg", "value": "no clinical symptoms of trypanosomiasis were observed"}, {"measurement": "adverse drug effects", "setting": "T. b. brucei Squib 427 [3]; mice, 5 days treatment", "value": "No signs of adverse drug effects were observed"}, {"measurement": "cure in stage-II HAT model", "setting": "T. brucei AnTAR1 PPYRE9", "value": "considered cured"}, {"measurement": "parasitemia (BLI or tail vein blood analysis)", "setting": "T. brucei AnTAR1 PPYRE9", "value": "did not show any signs of parasitemia from 28 dpi onwards"}, {"measurement": "EC50", "setting": "[4]; [7]", "value": "> 64000", "unit": "nM"}, {"measurement": "EC50", "setting": "[5]; MRC-5 EC50, Table 1", "value": "> 64000", "unit": "nM"}, {"measurement": "EC50", "setting": "[5]; MRC-5 EC50, Table 2", "value": "> 64000", "unit": "nM"}, {"measurement": "EC50", "setting": "T. brucei Squib 427; [8]", "value": 50, "unit": "nM"}]}
{"smiles": "Nc1ncnc2c1c(-c1ccc(Cl)cc1)cn2[C@@H]1O[C@H](CO)[C@@H](O)[C@H]1O", "note": "[TH1012, 4-amino-5-(4-chlorophenyl)-N7-(β-D-ribofuranosyl)-pyrrolo[2,3-d]pyrimidine]", "values": [{"measurement": "EC50", "setting": "[6]; Table 6", "value": 30, "unit": "nM"}, {"measurement": "blood parasitemia", "setting": "T. cruzi (Y-strain)", "value": "full suppression of parasitemia"}, {"measurement": "mortality caused by the infection", "setting": "T. cruzi (Y-strain)", "value": "protected animals from mortality"}, {"measurement": "EC50", "setting": "[4]; Table 5, average of 2-4 independent replicates", "value": 470, "unit": "nM"}, {"measurement": "EC50", "setting": "[5]; MRC-5 EC50, Table 4", "value": 27000, "unit": "nM"}, {"measurement": "EC50", "setting": "[5]; MRC-5 EC50, Table 5", "value": 27000, "unit": "nM"}, {"measurement": "anti-trypanosomal activity against T. brucei, in words", "setting": "T. brucei Squib 427", "value": "low μM EC50"}, {"measurement": "EC50", "setting": "T. brucei Squib 427; read-out: T.b. brucei EC50, Table 4, average of 2-6 independent determinations", "value": 7580, "unit": "nM"}]}
{"smiles": "Nc1ncnc2c1c(-c1ccc(Cl)cc1)cn2[C@@H]1O[C@H](CO)C[C@H]1O", "note": "[FH8512, 4-amino-5-(4-chlorophenyl)-N7-(3′-deoxy-β-D-ribofuranosyl)-pyrrolo[2,3-d]pyrimidine]", "values": [{"measurement": "EC50", "setting": "[2]", "value": 1800, "unit": "nM"}, {"measurement": "EC50", "setting": "[6]; Table 3", "value": 170, "unit": "nM"}, {"measurement": "blood parasitemia", "setting": "T. cruzi (Y-strain)", "value": "suppress blood parasitemia"}, {"measurement": "mortality caused by the infection", "setting": "T. cruzi (Y-strain)", "value": "protect animals from mortality"}, {"measurement": "EC50", "setting": "[4]; [7]", "value": 50, "unit": "nM"}, {"measurement": "EC50", "setting": "[5]; MRC-5 EC50, Table 1", "value": 19100, "unit": "nM"}, {"measurement": "EC50", "setting": "[5]; MRC-5 EC50, Table 2", "value": 19100, "unit": "nM"}, {"measurement": "EC50", "setting": "T. brucei Squib 427; [8]", "value": 2300, "unit": "nM"}]}
